Patent US12544325B2, “Compositions and related methods” (Colgate-Palmolive Company, priority 2020, dated 2026)

Assays:
[1] = background statement; cited from earlier work
[2] = Dissolution of amine fluoride in water with addition of alkali salts
Description: Similar formulations are created also containing one or more alkali salts, selected from sodium chloride, potassium chloride and trisodium citrate dihydrate to investigate the effect of the salts' presence on solubility of the amine fluoride.

[3] = Dissolution of amine fluoride in water without additional salts (saturation concentration); conditions: no salts
Description: Amine fluoride is added in increasingly greater amounts to determine its saturation concentration, shown below in Table 1A.

[4] = Dissolution of tertiary amine with HCl and sodium fluoride, without and with sodium chloride; assay type: physicochemical; conditions: hydrochloric acid, sodium fluoride and alkali salt added; compared to absence of additional inorganic salts
Description: A new batch of solutions was created similar to those shown in Table 2B, but with the addition of sodium fluoride.

[5] = Dissolution of tertiary amine with HCl and addition of alkali salts; assay type: physicochemical
Description: Further compositions containing the tertiary amine and hydrochloric acid were created. To these solutions, various quantities of alkali salts were added to evaluate the effect on solubility of the tertiary amine.

[6] = Dissolution of tertiary amine in water without inorganic salts, with or without HCl; assay type: physicochemical
Description: Similar compositions were created as those listed in Table 1A, but instead of amine fluoride, a tertiary amine was used.

[7] = when adding sodium chloride (composition 10)
[8] = with hydrochloric acid and about 5% alkali salt (composition 34)

| SMILES | aqueous solubility [1] | lowest concentration of sodium chloride shown to increase solubility of amine fluoride in water ([2]; sodium chloride) | solubility of amine fluoride in water [2, 7] | solubility of amine fluoride in water as concentration of tertiary amine [2, 7] | maximum solubility of amine fluoride in water [3] | maximum solubility of amine fluoride in water as concentration of tertiary amine ([3]; amine fluoride fully dissociated from hydrofluoride) | change of solubility of the tertiary amine [4] | minimum addition of Sodium Chloride to fully dissolve 34% of tertiary amine ([5]; with hydrochloric acid) | solubility of tertiary amine in water [5, 8] | solubility of tertiary amine in water as concentration [5, 8] | solubility of tertiary amine as concentration ([6]; with hydrochloric acid corresponding to hydronium level of equivalent amine fluoride) | solubility of tertiary amine ([6]; with hydrochloric acid corresponding to hydronium level of equivalent amine fluoride (compositions 21-23)) | solubility of the tertiary amine in water ([6]; without adjustment of pH) | solubility of the tertiary amine in water as concentration ([6]; without adjustment of pH) |
| --- | --- | --- | --- | --- | --- | --- | --- | --- | --- | --- | --- | --- | --- | --- |
| CCCCCCCCCCCCCCCCCCN(CCO)CCCN(CCO)CCO.F.F [amine fluoride, N′-octadecyltrimethylendiamine-N,N,N′-tris(2-ethanol)-dihydrofluoride] | very low aqueous solubility | about 0.7% | above 35 % by weight | about 640 mM | approximately 24 % by weight | about 440 mM | – | – | – | – | – | – | – | – |
| CCCCCCCCCCCCCCCCCCN(CCO)CCCN(CCO)CCO [tertiary amine, N′-octadecyltrimethylendiamine-N,N,N′-tris(2-ethanol)] | – | – | – | – | – | – | not increased any further | about 1% | about 40 % by weight | about 870 mM | about 530 mM | above 24% | about 70 % by weight | about 1520 mM |
